# Where two headings read alike, the source gives them in different places. Marks after values point to notes of the source that are not given here.
# Columns and labels:
# c-Fos positive neurones = experiment: Example 1: formalin hindpaw injection in 7 day neonatal rat pup, cFos positive neurones in dorsal horn; assay type: in vivo; conditions: 7 day old rat; dorsal horn of spinal cord; 90 minutes after formalin; xenon 70% v/v, nitrous oxide at a normally analgesic dose in the adult rat
# Method: The analgesic efficacy of xenon was investigated in a neonatal rat pup. A 7 day neonatal rat pup is known to be developmentally equivalent to a human full term fetus with respect to pain processing pathways.
# A 7 day old rat was injected with formalin into the hindpaw during exposure to either air or xenon (70% v/v). 90 minutes later the animal was killed and the spinal cord removed; evidence of activation of pain-processing pathways by formalin was sought by counting the number of cFos positive neurones in the dorsal horn of the spinal cord.
# rats = conditions: cited from earlier work
# [1] = cited from earlier work
# c-Fos expression = experiment: Formalin-induced c-Fos expression at the lumbar level of the spinal cord (immunohistochemistry); assay type: in vivo, rat; conditions: ipsilateral, 70% Xe; for reduction of c-Fos expression in response to formalin: 7 day-old pups; for suppression of mean c-Fos expression: 19 day-old rats; for depression of c-Fos expression in response to formalin: 28 day-old rats; for inhibition of c-Fos expression: adult rats
# Method: (§1) The study protocol was approved by the Home Office (UK), and all efforts were made to minimize animal suffering and the number of animals used. Fischer rats were used for the entire study (B&K Universal, Grimston Aldbrough Hull, UK). The rats were provided ad libitum food and water, and artificial lighting between 6 a.m. and 6 p.m. The age of each animal was determined from the body weight, based on a previously established growth curve (Hashimoto et al., 2002). (The date of birth was defined as 0 day-old.) Experiments were performed on rat pups of 7, 19, 28 day-old and on adult rats (11-12 week-old).
# (§2) Within each age-group, there were three cohorts (n=3 - 4) “Air+formalin”, “Xenon+formalin” and “Air+saline” cohorts. In the Air+formalin group, animals exposed to air were injected with 5% formalin into the plantar surface of their left hind paw subcutaneously. In the Xenon+formalin group, animals exposed to 70% Xe/20% O2/10% N2 were injected with 5% formalin as described above. In the Air+saline group, animals exposed to air were injected with saline as above. The volumes of formalin or saline injected were adjusted for each age group as previously reported [Ohashi Y et al, Pain 2002;100:7-18] and were as follows: 10 μl for 7 days old; 15 μl for 19 days old; 20 μl for 28 days old; 50 μl for adults.
# (§3) A recirculating system for exposure to the gas was constructed to minimise xenon consumption (FIG. 3). The circuit was flushed with gas (either air or xenon/oxygen/nitrogen) at a flow rate of 4 l/min and after the desired gas concentrations were achieved, the flow rate was reduced to 40 ml/min for the remainder of the experimental period. The carbon dioxide level and the humidity were kept less than 0.6% and 50% respectively with soda lime and silica gel. Formalin or saline was administered 15 min after gas exposure; thereafter, animals were exposed to the gas mixture for a further 90 min.
# Ninety min after the formalin injection, animals were deeply anesthetised with pentobarbital (100 mg/kg, i.p.) and perfused with 4% paraformaldehyde. The whole spinal cord was removed. The lumbar enlargement was sectioned transversely at 30 μm and then was stained for c-Fos as previously described [Ma D et al, Br J Anaesth 2002;89:73946]. Briefly, sections were incubated for 30 min in 0.3% H2O2 in methanol and thereafter washed three times in 0.1M phosphate buffered saline (PBS). Following this, the sections were incubated for 1 hour in a “blocking solution” consisting of 3% donkey serum and 0.3% Triton X in PBS (PBT) and subsequently incubated overnight at 4° C. in 1:5,000 goat anti-c-Fos antibody (sc-52-G, Santa Cruz Biotechnology, Santa Cruz, Calif.) in PBT with 1% donkey serum. The sections were then rinsed 3 times with PBT and incubated with 1:200 donkey anti-goat IgG (Vector laboratories, Burlingame, Calif.) in PBT with 1% Donkey serum for 1 hour. The sections were washed again with PBT and incubated with avidin-biotin-peroxidase complex (Vector Laboratories) in PBT for 1 hour. The sections were rinsed 3 times with PBS and stained with 3,3′-diaminobenzidine (DAB) with nickel ammonium sulphate in which hydrogen peroxide was added (DAB kit, Vector Laboratories). After the staining was completed, the sections were rinsed in PBS followed by distilled water and mounted, dehydrated with 100% ethanol, cleaned with 100% xylene and covered with cover slips.
# Photomicrographs of three sections per each animal were scored for c-Fos positive neurons by an observer who was blinded to the experimental treatment. For the purpose of localizing the c-Fos positive cells to functional regions of the spinal cord, each section was divided into A/B (laminae I-II or the superficial area), C (laminae […] or nucleus proprius area), D (laminae V-VI or the neck area and E (laminae VII-Xor the ventral area) [Yi D K et al, Pain 1995;60:257-265]. […]
# [2] = administration of xenon; cited from earlier work
# Fischer rats = experiment: Formalin plantar test, nociceptive intensity scoring (behaviour); assay type: in vivo, rat; conditions: for area under curve (AUC) of nociceptive intensity scoring curves: 70% Xe + formalin, AUC over 60 min, mean(SEM), n=3-4
# Method: as §1, §2, §3
# Immediately after injection of formalin, behavior was recorded for 60 min with a video camera (MegaPixel, Digital Handycam, Sony) positioned approximately 50 cm beneath the floor of the chamber to allow an unobstructed view of the paws (visible via a television monitor) and to facilitate recording of animal behavior. The chamber and holding area for pups waiting to be tested were maintained at room temperature throughout the experiment.
# Older rat pups were scored across four categories of pain behavior after xenon administration: no pain (the injected paw was in continuous contact with floor=“0”), favoring (the injected paw rested lightly on the floor=“1”), lifting (the injected paw was elevated all the time=“2”) and licking (licking, biting or shaking of the injected paw=“3”) [Teng C J et al, Pain 1998;76:337-47] and calculated as [Nociceptive score =(T1+[T2×2]+[T3×3])/300, where T1, T2 and T3 are the durations (sec) spent in categories 1, 2 or 3 per 300 sec epoch].
# The nociceptive intensity scoring against time in each animal was plotted and the area under curve (over a 60 min time period) (AUC) from each animal was calculated. The mean of c-Fos positive neurons for three representative sections in each region as described above was the aggregate score for each animal. The results of nociceptive intensity or c-Fos positive neurons are reported as means±SEMs. The statistical analysis was performed by one-way analysis of variance, followed by Newman-Keuls test. A p value <0.05 was regarded as statistically significant.
# NMDA receptor = conditions: 80% xenon; cultured hippocampal neurons; cited from earlier work
# [3] = in vivo; cited from earlier work
smiles,measurement,setting,value
"[N-]=[N+]=O [N2O, Nitrous oxide]",effect on formalin-induced c-Fos positive neurones,c-Fos positive neurones,did not change
same,antinociceptive effect (behaviorally and immunohistochemically),"rats; animals younger than 23 days old, formalin",no antinociceptive effect
same,antinociceptive effects against thermal and inflammatory stimulation,rats; rats under 3 weeks of age,lacks antinociceptive effects
same,MAC,[1]; humans,104%
[Xe] [xenon],reduction of c-Fos expression in response to formalin,"c-Fos expression; lamina C, P<0.001",50%
same,reduction of c-Fos expression in response to formalin,"c-Fos expression; lamina D, P<0.001",50%
same,reduction of c-Fos expression in response to formalin,"c-Fos expression; lamina E, P<0.01",28%
same,reduction of c-Fos expression in response to formalin,"c-Fos expression; laminae A/B, P<0.001",48%
same,suppression of mean c-Fos expression,"c-Fos expression; lamina III-IV, P<0.001",57%
same,suppression of mean c-Fos expression,"c-Fos expression; lamina V-VI, P<0.001",62%
same,suppression of mean c-Fos expression,"c-Fos expression; laminae I-II, P<0.001",55%
same,depression of c-Fos expression in response to formalin,"c-Fos expression; lamina III-IV, P<0.001",27%
same,depression of c-Fos expression in response to formalin,"c-Fos expression; lamina V-VI, P<0.001",28%
same,depression of c-Fos expression in response to formalin,"c-Fos expression; laminae I-II, P<0.001",34%
same,inhibition of c-Fos expression,"c-Fos expression; lamina III-IV, P<0.001",45%
same,inhibition of c-Fos expression,"c-Fos expression; lamina V-VI, P<0.001",34%
same,inhibition of c-Fos expression,"c-Fos expression; laminae I-II, P<0.001",41%
same,inherent neurotoxicity of NMDA antagonists,[2],does not appear to exist
same,area under curve (AUC) of nociceptive intensity scoring curves,"Fischer rats; 7-day-old Fischer rats, P<0.001 vs Air + formalin 11(0.4)",0.17(0.04)**
same,area under curve (AUC) of nociceptive intensity scoring curves,"Fischer rats; 19-day-old Fischer rats, P<0.01 vs Air + formalin 88(8)",5(0.9)*
same,area under curve (AUC) of nociceptive intensity scoring curves,"Fischer rats; 28-day-old Fischer rats, P<0.001 vs Air + formalin 81(7)",1.0(0.3)**
same,nociceptive behaviour after formalin injection,"Fischer rats; 7 day-old rats exposed to xenon, 60-min observation period",only mild nociceptive behaviour for the first two minutes
same,area under curve (AUC) of nociceptive intensity scoring curves,"Fischer rats; Adult Fischer rats, P<0.001 vs Air + formalin 120(0.7)",0.8(0.1)**
same,effect on formalin-induced c-Fos positive neurones,c-Fos positive neurones,almost completely attenuated
same,reduction of NMDA-activated currents,NMDA receptor,up to 60%
same,minimum alveolar concentration (MAC),[1]; elderly female patients,51 % atn
same,minimum alveolar concentration (MAC),[1]; humans,71 % atm
same,MAC-awake,[1]; in vivo,33%
same,teratogenic effects,[3],devoid of teratogenic effects

# — US7632872B2, “Analgesic agent for newborn or fetal subjects” (Protexeon Limited, priority 2002, dated 2009)
